US20220031684A1, “PROPHYLACTIC EFFICACY OF SEROTONIN 4 RECEPTOR AGONISTS AGAINST STRESS” (THE TRUSTEES OF COLUMBIA UNIVERSITY IN THE CITY OF NEW YORK, priority 2019, published 2022)

Assays:
[1] = test system: 129S6/SvEv mice; assay: 3-shock contextual fear conditioning (CFC); format: in vivo; conditions: for freezing at re-exposure to the training context (learned fear) vs saline: re-exposure 5 days later
Experimental: (§1) This chronic CORT elevation dysregulates the hypothalamic-pituitary-adrenal axis (HPA) in a manner similar to that observed in clinical depression. The dose and duration of CORT treatment was selected based on previous studies. CORT (35 μg/ml, equivalent to about 5 mg/kg/day) dissolved in 0.45% hydroxypropyl-o-cyclodextrin (0-CD) or vehicle (VEH) (0.45% j-CD) was available ad libitum in the drinking water in opaque bottles to protect it from light. VEH- and CORT-treated water was changed every 3 days to prevent possible degradation. Contextual Fear Conditioning (CFC): A 3-shock CFC procedure was administered as previously published. Briefly, mice were placed into context A and administered 3 2-s shocks (0.75 mA) at 180 s, 240 s or 300 s following placement into context A. Mice were removed from the context 15 s following the termination of shock (at 317 s). For context retrieval, mice were placed back into context A for 300 s. Electrophysiology: Electrophysiology was conducted as previously described. Statistical Analysis: Results from data analyses are expressed as means±SEM. Alpha was set to 0.05 for all analyses. Data were analyzed using GraphPad Prism v7.0 or v8.0. For all experiments, unless otherwise noted, one- or two-way ANOVAs with repeated-measures were applied to the data as appropriate. Significant main effects and/or interactions were followed by Fisher's PLSD post hoc analysis or unpaired t-tests. Drugs: All drugs were prepared in physiological saline and all injections were administered intraperitoneally (i.p.) in volumes of 0.1 cc per […] body weight unless otherwise noted. Fluoxetine hydrochloride (Flx): Flx (BioTrend Chemicals AG, BG197, Zurich, Germany) was administered in the drinking water (18 mg/kg/day) for 3 weeks before the start of CORT. […] (R,S)-ketamine (K): (R,S)-ketamine (Ketaset III, Ketamine HCl injection, Fort Dodge Animal Health, Fort Dodge, Iowa) was administered in a single dose at 30 mg/kg of body weight 1 week before the start of CFC. […] PF-04995274: PF-04995274 (Sigma, Catalog No. 1331782-27-4, St. Louis, Mo.) was administered a single dose at 3 or 10 mg/kg of body weight 1 week before the start of CFC. PF-04995274 was dissolved in saline using an ultrasonic homogenizer (BioLogics, Model 3000, Manassas, Va.). Osmotic minipump implantation: ALZET osmotic minipumps (Model 2004, […], 28 days) were implanted subcutaneously under isoflurane anesthesia as previously described [S2]. Osmotic minipumps were rotated under the skin two to three times per week. Behavioral Assays: All experiments were approved by the Institutional Animal Care and Use Committee (IACUC) at the New York Psychiatric Institute (NYSPI). Elevated Plus Maze (EPM): Testing was performed as previously described [S3]. Briefly, the maze is a plus-cross-shaped apparatus consisting of four arms, two open and two enclosed by walls, linked by a central platform at a height of 50 cm from the floor. Mice were individually placed in the center of the maze facing an open arm and were allowed to explore the maze for 5 min. The time spent in and the number of entries into the open arms was used as an anxiety index. Videos were scored using ANY-maze behavior tracking software (Stoelting, Wood Dale, Ill.). Novelty-Suppressed Feeding: The NSF is a conflict test that elicits competing motivations: the drive to eat and the fear of venturing into the center of a brightly lit arena. The latency to feed is used as an index of anxiety-like behavior, because classical anxiolytic drugs decrease this measure. The NSF test was carried out during an 8 min period as previously described [S3]. Briefly, the testing apparatus consisted of a plastic box (50×50×20 cm), the floor of which was covered with approximately 2 cm of bedding. For 129S6/SvEv experiments, mice were food restricted for 12 h. For the C57BL/6N experiments, mice were food restricted for 24 h. […]

[2] = test system: 129S6/SvEv mice; assay: Open field (OF) after CFC; format: in vivo
Experimental: This chronic CORT elevation dysregulates the hypothalamic-pituitary-adrenal axis (HPA) in a manner similar to that observed in clinical depression. The dose and duration of CORT treatment was selected based on previous studies. CORT (35 μg/ml, equivalent to about 5 mg/kg/day) dissolved in 0.45% hydroxypropyl-o-cyclodextrin (0-CD) or vehicle (VEH) (0.45% j-CD) was available ad libitum in the drinking water in opaque bottles to protect it from light. VEH- and CORT-treated water was changed every 3 days to prevent possible degradation. Contextual Fear Conditioning (CFC): A 3-shock CFC procedure was administered as previously published. Briefly, mice were placed into context A and administered 3 2-s shocks (0.75 mA) at 180 s, 240 s or 300 s following placement into context A. Mice were removed from the context 15 s following the termination of shock (at 317 s). For context retrieval, mice were placed back into context A for 300 s. Electrophysiology: Electrophysiology was conducted as previously described. Statistical Analysis: Results from data analyses are expressed as means±SEM. Alpha was set to 0.05 for all analyses. Data were analyzed using GraphPad Prism v7.0 or v8.0. For all experiments, unless otherwise noted, one- or two-way ANOVAs with repeated-measures were applied to the data as appropriate. Significant main effects and/or interactions were followed by Fisher's PLSD post hoc analysis or unpaired t-tests. Drugs: All drugs were prepared in physiological saline and all injections were administered intraperitoneally (i.p.) in volumes of 0.1 cc per […] body weight unless otherwise noted. Fluoxetine hydrochloride (Flx): Flx (BioTrend Chemicals AG, BG197, Zurich, Germany) was administered in the drinking water (18 mg/kg/day) for 3 weeks before the start of CORT. […] (R,S)-ketamine (K): (R,S)-ketamine (Ketaset III, Ketamine HCl injection, Fort Dodge Animal Health, Fort Dodge, Iowa) was administered in a single dose at 30 mg/kg of body weight 1 week before the start of CFC. […] Videos were scored using ANY-maze behavior tracking software (Stoelting, Wood Dale, Ill.). […]

[3] = test system: C57BL/6NTac mice; assay: Adverse side effects of chronic administration; format: in vivo
Experimental: (§2) This chronic CORT elevation dysregulates the hypothalamic-pituitary-adrenal axis (HPA) in a manner similar to that observed in clinical depression. The dose and duration of CORT treatment was selected based on previous studies. CORT (35 μg/ml, equivalent to about 5 mg/kg/day) dissolved in 0.45% hydroxypropyl-o-cyclodextrin (0-CD) or vehicle (VEH) (0.45% j-CD) was available ad libitum in the drinking water in opaque bottles to protect it from light. VEH- and CORT-treated water was changed every 3 days to prevent possible degradation. Contextual Fear Conditioning (CFC): A 3-shock CFC procedure was administered as previously published. Briefly, mice were placed into context A and administered 3 2-s shocks (0.75 mA) at 180 s, 240 s or 300 s following placement into context A. Mice were removed from the context 15 s following the termination of shock (at 317 s). For context retrieval, mice were placed back into context A for 300 s. Electrophysiology: Electrophysiology was conducted as previously described. Statistical Analysis: Results from data analyses are expressed as means±SEM. Alpha was set to 0.05 for all analyses. Data were analyzed using GraphPad Prism v7.0 or v8.0. For all experiments, unless otherwise noted, one- or two-way ANOVAs with repeated-measures were applied to the data as appropriate. […] Videos were scored using ANY-maze behavior tracking software (Stoelting, Wood Dale, Ill.). […]

[4] = test system: 129S6/SvEv mice; assay: Forced swim test (FST) after CFC; format: in vivo
Experimental: as §1

[5] = test system: C57BL/6NTac mice; assay: Sucrose splash test (ST) in CORT model; format: in vivo; conditions: male C57BL/6NTac; Flx 18 mg/kg/day or RS-67,333 1.5 mg/kg/day for 3 weeks prior to CORT
Experimental: as §2

[6] = Chronic corticosterone (CORT) model: body weight; format: in vivo, mice; conditions: male C57BL/6NTac; Flx 18 mg/kg/day in drinking water or RS-67,333 1.5 mg/kg/day in osmotic minipumps for 3 weeks prior to CORT
Experimental: as §2

[7] = FIG. 3 cohort, FIG. 3G, Fisher's PLSD

SMILES: CCCCN1CCC(CCC(=O)c2cc(Cl)c(N)cc2OC)CC1.Cl [RS-67,333, 1-(4-amino-5-chloro-2-methoxyphenyl)-3-[1(n-butyl)-4-piperidinyl]-1-propanone HCl]
- p, CFC Training freezing (min 2), Saline vs. RS67333 (10 mg/kg) ([1]; FIG. 3 cohort, Fisher's PLSD): 0.8719
- freezing at re-exposure to the training context ([1]; female 129S6/SvEv, 1.5 or 10 mg/kg vs saline, 5 days after CFC): comparable levels of freezing
- freezing during CFC training ([1]; female 129S6/SvEv, single injection 1 week before CFC, 1.5 or 10 mg/kg vs saline): comparable levels of freezing
- freezing during CFC training vs saline ([1]; male 129S6/SvEv, single i.p. injection 1 week before CFC, 30 mg/kg): significantly less freezing
- freezing at re-exposure to the training context (learned fear) vs saline ([1]; male 129S6/SvEv, single i.p. injection 1 week before CFC, 1.5 mg/kg): significantly less freezing
- freezing at re-exposure to the training context (learned fear) vs saline ([1]; male 129S6/SvEv, single i.p. injection 1 week before CFC, 10 mg/kg): significantly less freezing
- p, OF Time in Center, Saline vs. RS67333 (10 mg/kg) ([2]; FIG. 2I, t-test): 0.2475
- time spent in the center of the OF ([2]; female 129S6/SvEv, 1.5 or 10 mg/kg): did not alter
- time in the center of the OF arena vs saline ([2]; male 129S6/SvEv, 10 mg/kg): comparable amount of time
- adverse side effects [3]: did not result in adverse side effects
- p, FST Day 1 Immobility Time (sec), RS67333 (1.5 mg/kg) vs. RS67333 (10 mg/kg) ([4]; FIG. 2E, Fisher's LSD): 0.3430
- p, FST Day 1 Immobility Time (sec), RS67333 (1.5 mg/kg) vs. RS67333 (30 mg/kg) ([4]; FIG. 2E, Fisher's LSD): 0.5994
- p, FST Day 1 Immobility Time (sec), RS67333 (10 mg/kg) vs. RS67333 (30 mg/kg) ([4]; FIG. 2E, Fisher's LSD): 0.1099
- p, FST Day 1 Immobility Time (sec), Saline vs. RS67333 (1.5 mg/kg) ([4]; FIG. 2E, Fisher's LSD): 0.3784
- p, FST Day 1 Immobility Time (sec), Saline vs. RS67333 (10 mg/kg) ([4]; FIG. 2E, Fisher's LSD): 0.0028
- p, FST Day 1 Immobility Time (sec), Saline vs. RS67333 (30 mg/kg) ([4]; FIG. 2E, Fisher's LSD): 0.8437
- p, FST Day 2 Immobility Time (min 3-6) (sec), RS67333 (1.5 mg/kg) vs. RS67333 (10 mg/kg) [4, 7]: 0.0235
- p, FST Day 2 Immobility Time (min 3-6) (sec), Saline vs. RS67333 (1.5 mg/kg) [4, 7]: 0.4916
- p, FST Day 2 Immobility Time (min 3-6) (sec), Saline vs. RS67333 (10 mg/kg) [4, 7]: 0.1991
- immobility, FST days 1 and 2 ([4]; female 129S6/SvEv, 1.5 or 10 mg/kg vs saline): comparable levels of immobility
- immobility time, FST Day 2 ([4]; male 129S6/SvEv, RS-67,333 1.5, 10 or 30 mg/kg vs saline): comparable
- immobility, FST Day 1 vs saline ([4]; male 129S6/SvEv, single injection 1 week before CFC, 10 mg/kg): significantly less immobile
- grooming duration (ST) vs CORT+Veh [5]: increased grooming duration
- CORT-induced increase in body weight [6]: attenuated
